Measured values taken from the supplement of paper PMC4862054.

system: CAL-51; assay: normalised viability (% of control), CellTiter-Blue; higher = more viable cells (about 100 = DMSO control); details: 30 nM; incubation time: 72 h
Outline: (§1)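 Compound dissolved in 5 µl medium was pre-loaded into 384-well plates, and breast cancer cell lines in 20 µl suspension were seeded on top and incubated 72 h. After adding 2.5 µl CellTiter-Blue reagent for 2 h at 37 °C, fluorescence was read at 560/590 nm. Plates were normalised to vehicle (100) and a positive kill control (0), with Z'-factor quality control. Each value is normalised viability at a single listed concentration from the series.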

Compound	normalised viability [%]
CCC1(c2ccc(N)cc2)CCC(=O)NC1=O (stereo unspecified) [Aminoglutethimide]	92.6
Clc1ccc(Nc2nnc(Cc3ccncc3)c3ccccc23)cc1 [Vatalanib]	98.7
NCC(=O)CCC(=O)O [Aminolevulinic acid]	100

same assay, conditions: 100 nM; incubation time: 72 h

Compound	normalised viability [%]
O=C1CCC(N2C(=O)c3ccccc3C2=O)C(=O)N1 (stereo unspecified) [Thalidomide]	91.3
C=C(c1ccc(C(=O)O)cc1)c1cc2c(cc1C)C(C)(C)CCC2(C)C [Bexarotene]	88.5
CCC1(c2ccc(N)cc2)CCC(=O)NC1=O (stereo unspecified) [Aminoglutethimide]	92.8
Clc1ccc(Nc2nnc(Cc3ccncc3)c3ccccc23)cc1 [Vatalanib]	104
NCC(=O)CCC(=O)O [Aminolevulinic acid]	92.9

system: BT-474; assay: as above; details: 1 nM; incubation time: 72 h
Outline: as §1

Compound	normalised viability [%]
CCN(CCCOc1ccc2c(Nc3cc(CC(=O)Nc4cccc(F)c4)[nH]n3)ncnc2c1)CCOP(=O)(O)O [Barasertib]	108
CO[C@H]1/C=C\C=C(/C)C(=O)NC2=CC(=O)C(NCCN(C)C)=C(C[C@@H](C)C[C@H](OC)[C@H](O)[C@@H](C)/C=C(\C)[C@@H]1OC(N)=O)C2=O [Alvespimycin]	116
NC(=O)Nc1cc(-c2cccc(F)c2)sc1C(=O)N[C@H]1CCCNC1 [AZD 7762]	119

same assay, conditions: 10 nM; incubation time: 72 h

Compound	normalised viability [%]
O=C1CCC(N2C(=O)c3ccccc3C2=O)C(=O)N1 (stereo unspecified) [Thalidomide]	110
C=C(c1ccc(C(=O)O)cc1)c1cc2c(cc1C)C(C)(C)CCC2(C)C [Bexarotene]	103
CCC1(c2ccc(N)cc2)CCC(=O)NC1=O (stereo unspecified) [Aminoglutethimide]	107
Clc1ccc(Nc2nnc(Cc3ccncc3)c3ccccc23)cc1 [Vatalanib]	95.8
NCC(=O)CCC(=O)O [Aminolevulinic acid]	115

same assay, conditions: 100 nM; incubation time: 72 h

Compound	normalised viability [%]
CCN(CCCOc1ccc2c(Nc3cc(CC(=O)Nc4cccc(F)c4)[nH]n3)ncnc2c1)CCOP(=O)(O)O [Barasertib]	95.1
CO[C@H]1/C=C\C=C(/C)C(=O)NC2=CC(=O)C(NCCN(C)C)=C(C[C@@H](C)C[C@H](OC)[C@H](O)[C@@H](C)/C=C(\C)[C@@H]1OC(N)=O)C2=O [Alvespimycin]	28.3
NC(=O)Nc1cc(-c2cccc(F)c2)sc1C(=O)N[C@H]1CCCNC1 [AZD 7762]	113

same assay, conditions: 1000 nM; incubation time: 72 h

Compound	normalised viability [%]
O=C1CCC(N2C(=O)c3ccccc3C2=O)C(=O)N1 (stereo unspecified) [Thalidomide]	110
C=C(c1ccc(C(=O)O)cc1)c1cc2c(cc1C)C(C)(C)CCC2(C)C [Bexarotene]	95.7
CCC1(c2ccc(N)cc2)CCC(=O)NC1=O (stereo unspecified) [Aminoglutethimide]	104
Clc1ccc(Nc2nnc(Cc3ccncc3)c3ccccc23)cc1 [Vatalanib]	96
NCC(=O)CCC(=O)O [Aminolevulinic acid]	119
CCN(CCCOc1ccc2c(Nc3cc(CC(=O)Nc4cccc(F)c4)[nH]n3)ncnc2c1)CCOP(=O)(O)O [Barasertib]	92.1
CO[C@H]1/C=C\C=C(/C)C(=O)NC2=CC(=O)C(NCCN(C)C)=C(C[C@@H](C)C[C@H](OC)[C@H](O)[C@@H](C)/C=C(\C)[C@@H]1OC(N)=O)C2=O [Alvespimycin]	27.8
NC(=O)Nc1cc(-c2cccc(F)c2)sc1C(=O)N[C@H]1CCCNC1 [AZD 7762]	106

same assay, conditions: 10000 nM; incubation time: 72 h

Compound	normalised viability [%]
O=C1CCC(N2C(=O)c3ccccc3C2=O)C(=O)N1 (stereo unspecified) [Thalidomide]	108
C=C(c1ccc(C(=O)O)cc1)c1cc2c(cc1C)C(C)(C)CCC2(C)C [Bexarotene]	97.7
CCC1(c2ccc(N)cc2)CCC(=O)NC1=O (stereo unspecified) [Aminoglutethimide]	105
Clc1ccc(Nc2nnc(Cc3ccncc3)c3ccccc23)cc1 [Vatalanib]	73.1
NCC(=O)CCC(=O)O [Aminolevulinic acid]	131

system: MDA-MB-468; assay: as above; details: 1 nM; incubation time: 72 h
Outline: as §1

Compound	normalised viability [%]
CCN(CCCOc1ccc2c(Nc3cc(CC(=O)Nc4cccc(F)c4)[nH]n3)ncnc2c1)CCOP(=O)(O)O [Barasertib]	115
CO[C@H]1/C=C\C=C(/C)C(=O)NC2=CC(=O)C(NCCN(C)C)=C(C[C@@H](C)C[C@H](OC)[C@H](O)[C@@H](C)/C=C(\C)[C@@H]1OC(N)=O)C2=O [Alvespimycin]	111
NC(=O)Nc1cc(-c2cccc(F)c2)sc1C(=O)N[C@H]1CCCNC1 [AZD 7762]	107

same assay, conditions: 10 nM; incubation time: 72 h

Compound	normalised viability [%]
O=C1CCC(N2C(=O)c3ccccc3C2=O)C(=O)N1 (stereo unspecified) [Thalidomide]	97.9
C=C(c1ccc(C(=O)O)cc1)c1cc2c(cc1C)C(C)(C)CCC2(C)C [Bexarotene]	108
CCC1(c2ccc(N)cc2)CCC(=O)NC1=O (stereo unspecified) [Aminoglutethimide]	97.3
Clc1ccc(Nc2nnc(Cc3ccncc3)c3ccccc23)cc1 [Vatalanib]	98.6
NCC(=O)CCC(=O)O [Aminolevulinic acid]	101

same assay, conditions: 100 nM; incubation time: 72 h

Compound	normalised viability [%]
CCN(CCCOc1ccc2c(Nc3cc(CC(=O)Nc4cccc(F)c4)[nH]n3)ncnc2c1)CCOP(=O)(O)O [Barasertib]	34.4
CO[C@H]1/C=C\C=C(/C)C(=O)NC2=CC(=O)C(NCCN(C)C)=C(C[C@@H](C)C[C@H](OC)[C@H](O)[C@@H](C)/C=C(\C)[C@@H]1OC(N)=O)C2=O [Alvespimycin]	44.6
NC(=O)Nc1cc(-c2cccc(F)c2)sc1C(=O)N[C@H]1CCCNC1 [AZD 7762]	103

same assay, conditions: 1000 nM; incubation time: 72 h

Compound	normalised viability [%]
O=C1CCC(N2C(=O)c3ccccc3C2=O)C(=O)N1 (stereo unspecified) [Thalidomide]	101
C=C(c1ccc(C(=O)O)cc1)c1cc2c(cc1C)C(C)(C)CCC2(C)C [Bexarotene]	100
CCC1(c2ccc(N)cc2)CCC(=O)NC1=O (stereo unspecified) [Aminoglutethimide]	103
